This note sets out measurements from patent US8361968B2 (Takeda Pharmaceutical Company Limited, priority 2002, dated 2013).

Square brackets hold non-standard residues; d marks the D form. Peptide text beside a SMILES is read from it. * marks the point of attachment. Arg(Me) = CNC(=N)NCCC[C@H](N)C(=O)O; Fmoc = O=C(OCC1c2ccccc2-c2ccccc21)*; 2Pal = N[C@@H](Cc1ccccn1)C(=O)O; 3Pal = N[C@@H](Cc1cccnc1)C(=O)O; d4Pal = N[C@H](Cc1ccncc1)C(=O)O; azaGly = NNC(=O)O

Sequence of hOT7T175 (Q969F8 whole entry L364H): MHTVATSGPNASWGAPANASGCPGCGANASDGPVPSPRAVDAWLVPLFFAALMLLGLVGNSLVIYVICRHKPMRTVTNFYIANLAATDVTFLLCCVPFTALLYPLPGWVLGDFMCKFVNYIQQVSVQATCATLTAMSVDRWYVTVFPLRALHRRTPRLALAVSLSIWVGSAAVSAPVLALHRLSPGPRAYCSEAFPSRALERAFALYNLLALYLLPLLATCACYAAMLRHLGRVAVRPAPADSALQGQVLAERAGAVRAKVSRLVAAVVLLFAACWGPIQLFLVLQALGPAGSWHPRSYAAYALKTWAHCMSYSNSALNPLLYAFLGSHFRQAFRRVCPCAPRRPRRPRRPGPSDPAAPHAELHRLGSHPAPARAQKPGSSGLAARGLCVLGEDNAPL

This experiment has as its target hOT7T175 (Homo sapiens, UniProt Q969F8, L364H). The experiment in a line: hOT7T175 receptor binding activity: binding inhibition of Cy-5-labeled metastin (40-54) on hOT7T175-expressed CHO cells. More on the design: expressed in transfected cells; host or cells: CHO cells. The procedure:
Assay for hOT7T175 Receptor Binding Activity
h0T7T175-Expressed CHO cells were cultured in MEM-cc medium (nucleic acid-free) containing 10% dialyzed serum. The medium was removed and the adherent cells were washed with PBS. Then, PBS containing 5 mM EDTA was added and the cells were scraped from a flask with a cell scraper. […] To each well of a 96-Well Black Clear Bottom Plate (Applied Biosystems, Inc.), 10 μL of assay buffer containing 1% dimethylsulfoxide was added to examine total binding, 10 μL of 10 μM non-labeled peptide (having the same amino acid sequence as that of the labeled one) solution diluted with assay buffer to examine non-specific binding, and 10 μL of a test compound diluted with assay buffer to examine the binding inhibition activity of the test compound, respectively. Furthermore, 90 μL each of the cell suspension was dispensed to each well. […] The specific binding is a value obtained by subtracting the non-specific binding from the total binding.
Molecule `CC(C)C[C@H](NC(=O)CNC(=O)[C@H](Cc1ccccc1)NC(=O)[C@H](CO)NC(=O)[C@H](CC(N)=O)NC(=O)[C@H](Cc1c[nH]c2ccccc12)NC(=O)[C@H](CC(C)C)NC(=O)[C@@H](N)Cc1ccc(O)cc1)C(=O)N[C@@H](CCCNC(=N)N)C(=O)N[C@@H](Cc1ccccc1)C(N)=O` [Compound No. 59] (H-YLWNSFGLRF-NH2) had a half-maximal inhibitory concentration (IC50) of 340 nM.

`C/N=C(/NC)NCCC[C@H](NC(=O)[C@H](CC(C)C)NC(=O)CNC(=O)[C@H](Cc1ccccc1)NC(=O)[C@H](CO)NC(=O)[C@H](CC(N)=O)NC(=O)[C@H](Cc1c[nH]c2ccccc12)NC(=O)[C@H](CC(N)=O)NC(=O)[C@@H](N)Cc1ccc(O)cc1)C(=O)N[C@@H](Cc1ccccc1)C(N)=O` [Compound No. 129] showed an IC50 of 83 nM.

Turning to `CNC(=N)NCCC[C@H](NC(=O)[C@H](CC(C)C)NC(=O)CNC(=O)[C@H](Cc1ccccc1)NC(=O)[C@H](CO)NC(=O)[C@H](CC(N)=O)NC(=O)[C@H](Cc1c[nH]c2ccccc12)NC(=O)OCC1c2ccccc2-c2ccccc21)C(=O)N[C@@H](Cc1ccccc1)C(N)=O` [Compound No. 145, Fmoc-Trp-Asn-Ser-Phe-Gly-Leu-Arg(Me)-Phe-NH2] (Fmoc-WNSFGL[Arg(Me)]F-NH2), the IC50 was 120 nM.

`CNC(N)=NCCC[C@H](NC(=O)[C@H](CC(C)C)NC(=O)NNC(=O)[C@H](Cc1ccccc1)NC(=O)[C@H](CO)NC(=O)[C@H](CC(N)=O)NC(=O)[C@H](CO)NC(=O)[C@H](N)Cc1ccc(O)cc1)C(=O)N[C@@H](Cc1ccccc1)C(N)=O` [Compound No. 239, D-Tyr-Ser-Asn-Ser-Phe-AzaGly-Leu-Arg(Me)-Phe-NH2] (H-[dY]SNSF[azaGly]L[Arg(Me)]F-NH2) returned an IC50 of 120 nM.

Molecule `CNC(=N)NCCC[C@H](NC(=O)[C@H](CC(C)C)NC(=O)NNC(=O)[C@H](Cc1ccccc1)NC(=O)[C@H](CO)NC(=O)[C@H](CC(N)=O)NC(=O)[C@@H]1CCCN1C(=O)[C@H](CC(N)=O)NC(=O)[C@H](N)Cc1ccc(O)cc1)C(=O)N[C@@H](Cc1ccccc1)C(N)=O` [Compound No. 253, D-Tyr-Asn-Pro-Asn-Ser-Phe-AzaGly-Leu-Arg(Me)-Phe-NH2] (H-[dY]NPNSF[azaGly]L[Arg(Me)]F-NH2) registered a concentration for half-maximal inhibition (IC50) of 27 nM.

Molecule `CNC(N)=NCCC[C@H](NC(=O)[C@H](CC(C)C)NC(=O)NNC(=O)[C@H](Cc1ccccc1)NC(=O)[C@H](CO)NC(=O)[C@H](CC(N)=O)NC(=O)[C@@H](Cc1ccncc1)NC(=O)[C@H](CC(N)=O)NC(=O)[C@H](N)Cc1ccc(O)cc1)C(=O)N[C@@H](Cc1ccccc1)C(N)=O` [Compound No. 302, D-Tyr-Asn-D-Pya(4)-Asn-Ser-Phe-AzaGly-Leu-Arg(Me)-Phe-NH2] (H-[dY]N[d4Pal]NSF[azaGly]L[Arg(Me)]F-NH2) registered a concentration for half-maximal inhibition (IC50) of 7.7 nM.

The molecule `CC[C@H](C)[C@H](NC(=O)[C@H](N)Cc1ccc(O)cc1)C(=O)N[C@@H](CC(N)=O)C(=O)N[C@@H](CO)C(=O)N[C@@H](Cc1ccccc1)C(=O)NNC(=O)N[C@@H](CC(C)C)C(=O)N[C@@H](CCCNC(=N)NC)C(=O)N[C@@H](Cc1ccccc1)C(N)=O` [Compound No. 240, D-Tyr-Ile-Asn-Ser-Phe-AzaGly-Leu-Arg(Me)-Phe-NH2] (H-[dY]INSF[azaGly]L[Arg(Me)]F-NH2) yielded an IC50 of 17 nM.

Turning to `CNC(N)=NCCC[C@H](NC(=O)[C@H](CC(C)C)NC(=O)NNC(=O)[C@H](Cc1ccccc1)NC(=O)[C@H](CO)NC(=O)[C@H](CC(N)=O)NC(=O)[C@H](Cc1ccccc1)NC(=O)[C@@H](CC(N)=O)NC(=O)[C@H](N)Cc1ccc(O)cc1)C(=O)N[C@@H](Cc1ccccc1)C(N)=O` [Compound No. 257, D-Tyr-D-Asn-Phe-Asn-Ser-Phe-AzaGly-Leu-Arg(Me)-Phe-NH2] (H-[dY][dN]FNSF[azaGly]L[Arg(Me)]F-NH2), the IC50 amounted to 40 nM.

For the molecule `CNC(=N)NCCC[C@H](NC(=O)[C@H](CC(C)C)NC(=O)NNC(=O)[C@H](Cc1ccccc1)NC(=O)[C@H](CO)NC(=O)[C@H](CC(N)=O)NC(=O)[C@H](CCCNC(=N)N)NC(C)=O)C(=O)N[C@@H](Cc1ccccc1)C(N)=O` [Compound No. 275, Acetyl-Arg-Asn-Ser-Phe-AzaGly-Leu-Arg(Me)-Phe-NH2] (Ac-RNSF[azaGly]L[Arg(Me)]F-NH2), the IC50 is 410 nM.

Molecule `CNC(=N)NCCC[C@H](NC(=O)[C@H](CC(C)C)NC(=O)NNC(=O)[C@H](Cc1ccccc1)NC(=O)[C@H](CO)NC(=O)[C@H](CC(N)=O)NC(=O)[C@H](Cc1cccnc1)NC(=O)[C@H](CC(N)=O)NC(=O)[C@H](N)Cc1ccc(O)cc1)C(=O)N[C@@H](Cc1ccccc1)C(N)=O` [Compound No. 251, D-Tyr-Asn-Pya(3)-Asn-Ser-Phe-AzaGly-Leu-Arg(Me)-Phe-NH2] (H-[dY]N[3Pal]NSF[azaGly]L[Arg(Me)]F-NH2) returned a 50% inhibitory concentration (IC50) of 87 nM.

For `CNC(=N)NCCC[C@H](NC(=O)[C@H](CC(C)C)NC(=O)CNC(=O)[C@H](Cc1ccccc1)NC(=O)[C@H](CO)NC(=O)[C@H](CC(N)=O)NC(=O)[C@H](CO)NC(=O)[C@H](N)Cc1ccc(O)cc1)C(=O)N[C@@H](Cc1ccccc1)C(N)=O` [Compound No. 226] (H-[dY]SNSFGL[Arg(Me)]F-NH2), the IC50 came to 100 nM.

As to `CNC(=N)NCCC[C@H](NC(=O)[C@H](CC(C)C)NC(=O)NNC(=O)[C@H](Cc1ccccc1)NC(=O)[C@H](CO)NC(=O)[C@H](CC(N)=O)NC(=O)[C@H](Cc1ccccn1)NC(=O)[C@H](CC(N)=O)NC(=O)[C@H](N)Cc1ccc(O)cc1)C(=O)N[C@@H](Cc1ccccc1)C(N)=O` [Compound No. 285, D-Tyr-Asn-Pya(2)-Asn-Ser-Phe-AzaGly-Leu-Arg(Me)-Phe-NH2] (H-[dY]N[2Pal]NSF[azaGly]L[Arg(Me)]F-NH2), the half-maximal inhibitory concentration (IC50) came out at 40 nM.

Molecule `CC(C)C[C@H](NC(=O)CNC(=O)[C@H](Cc1ccccc1)NC(=O)[C@H](CO)NC(=O)[C@H](CC(N)=O)NC(=O)[C@H](CO)NC(=O)[C@H](CC(N)=O)NC(=O)[C@@H](N)Cc1ccc(O)cc1)C(=O)N[C@@H](CCCNC(=N)N)C(=O)N[C@@H](Cc1ccccc1)C(N)=O` [Compound No. 69] (H-YNSNSFGLRF-NH2) came in with an IC50 of 83 nM.

For `CC(C)C[C@H](NC(=O)CNC(=O)[C@H](Cc1ccccc1)NC(=O)[C@H](CO)NC(=O)[C@H](CC(N)=O)NC(=O)[C@H](Cc1c[nH]c2ccccc12)NC(=O)[C@H](CC(N)=O)NC(=O)[C@@H](N)Cc1ccc(O)cc1)C(=O)N[C@@H](CCCNC(=N)N(C)C)C(=O)N[C@@H](Cc1ccccc1)C(N)=O` [Compound No. 83], the IC50 came out at 25 nM.

`CC(C)C[C@H](NC(=O)CNC(=O)[C@H](Cc1ccccc1)NC(=O)[C@H](CO)NC(=O)[C@H](CC(N)=O)NC(=O)[C@H](Cc1c[nH]c2ccccc12)NC(=O)[C@@H](N)CC(N)=O)C(=O)N[C@@H](CCCNC(=N)N)C(=O)N[C@@H](Cc1ccccc1)C(N)=O` [Compound No. 4, des(1)-MS10, reference compound] (H-NWNSFGLRF-NH2; N-terminus assumed) returned an IC50 of 260 nM.

In the case of `CC(C)C[C@H](NC(=O)CNC(=O)[C@H](Cc1ccccc1)NC(=O)[C@H](CO)NC(=O)[C@H](CC(N)=O)NC(=O)[C@H](C)NC(=O)[C@H](CC(N)=O)NC(=O)[C@@H](N)Cc1ccc(O)cc1)C(=O)N[C@@H](CCCNC(=N)N)C(=O)N[C@@H](Cc1ccccc1)C(N)=O` [Compound No. 67] (H-YNANSFGLRF-NH2), the IC50 was found to be 27 nM.

`CNC(N)=NCCC[C@H](NC(=O)[C@H](CC(C)C)NC(=O)NNC(=O)[C@H](Cc1ccccc1)NC(=O)[C@H](CO)NC(=O)[C@H](CC(N)=O)NC(=O)[C@@H](NC(=O)[C@H](CC(N)=O)NC(=O)[C@H](N)Cc1ccc(O)cc1)[C@@H](C)O)C(=O)N[C@@H](Cc1ccccc1)C(N)=O` [Compound No. 221, D-Tyr-Asn-Thr-Asn-Ser-Phe-AzaGly-Leu-Arg(Me)-Phe-NH2] (H-[dY]NTNSF[azaGly]L[Arg(Me)]F-NH2): the IC50 was 95 nM.

Molecule `CC(C)C[C@H](NC(=O)CNC(=O)[C@H](Cc1ccccc1)NC(=O)[C@H](CO)NC(=O)[C@H](CC(N)=O)NC(=O)[C@H](Cc1c[nH]c2ccccc12)NC(=O)[C@H](CC(=O)O)NC(=O)[C@@H](N)Cc1ccc(O)cc1)C(=O)N[C@@H](CCCNC(=N)N)C(=O)N[C@@H](Cc1ccccc1)C(N)=O` [Compound No. 57] (H-YDWNSFGLRF-NH2) registered an IC50 of 100 nM.

With `CC(C)C[C@H](NC(=O)CNC(=O)[C@H](Cc1ccccc1)NC(=O)[C@H](CO)NC(=O)[C@H](CC(N)=O)NC(=O)[C@H](CC(C)C)NC(=O)[C@H](CC(N)=O)NC(=O)[C@@H](N)Cc1ccc(O)cc1)C(=O)N[C@@H](CCCNC(=N)N)C(=O)N[C@@H](Cc1ccccc1)C(N)=O` [Compound No. 68] (H-YNLNSFGLRF-NH2), the IC50 was 7.7 nM.

For the molecule `CNC(=N)NCCC[C@H](NC(=O)[C@H](CC(C)C)NC(=O)CNC(=O)[C@H](Cc1ccccc1)NC(=O)[C@H](CO)NC(=O)[C@H](CC(N)=O)NC(=O)[C@@H](Cc1c[nH]c2ccccc12)NC(=O)[C@H](N)CC(N)=O)C(=O)N[C@@H](Cc1ccccc1)C(N)=O` [Compound No. 225, D-Asn-D-Trp-Asn-Ser-Phe-Gly-Leu-Arg(Me)-Phe-NH2] (H-[dN][dW]NSFGL[Arg(Me)]F-NH2), the half-maximal inhibitory concentration (IC50) worked out at 410 nM.

In turn, `CC(C)C[C@H](NC(=O)CNC(=O)[C@H](Cc1ccccc1)NC(=O)[C@H](CO)NC(=O)[C@H](CC(N)=O)NC(=O)[C@H](Cc1c[nH]c2ccccc12)NC(=O)[C@H](CC(N)=O)NC(=O)[C@H](C)N)C(=O)N[C@@H](CCCNC(=N)N)C(=O)N[C@@H](Cc1ccccc1)C(N)=O` [Compound No. 72] (H-ANWNSFGLRF-NH2) had an IC50 of 540 nM.
